Experimental data reported in patent publication US10189837B2, “Crystalline (8S,9R)-5-fluoro-8-(4-fluorophenyl)-9-(1-methyl-1H-1,2,4-triazol-5-yl)-8,9-dihydro-2H-pyrido[4,3,2-de]phthalazin-3(7H)-one tosylate salt” (Medivation Technologies, LLC, priority 2010, dated 2019).

Columns and labels:
Assay type in all cases: cell-based
[1] = system: Mantle cell lymphoma cell line Granta-519; test: Single-agent cytotoxicity assay, CellTiter Glo cell survival; conditions: Homo sapiens, Granta-519, 96 h, 4-day assay
Description: (§1) Mantle cell lymphoma cell line Granta-519 was cultured in Dulbecco's MEM (4.5 g/L glucose) containing 10% FBS, 2 mM L-glutamine, 100 U/mL Penicillin and 100 μg/mL Streptomycin. Mantle cell lymphoma cell line Jeko-1 was cultured in RPMI1640 containing 10% FBS, 100 U/mL Penicillin and 100 μg/mL Streptomycin. Mantle cell lymphoma cell line Z138 was cultured in IMDM containing 10% horse serum, 100 U/mL Penicillin and 100 μg/mL Streptomycin. All cell lines were maintained in 37° C. incubator with 5% CO2 till ready for assay. Granta-519, Jeko-1 and Z138 cells were seeded at either 1000 or 5000 cells/well in 96-well plates. Cells were incubated for overnight at 37° C. before treated with their corresponding growth media containing free base in 0.1% DMSO at various concentrations ranging from 1000 nM to 0.32 nM. 0.1% DMSO was used as mock treatment or control. After 4 days incubation, cell survival was measured by CellTiter Glo (Promega) and cell survival fraction was calculated relative to control. GraphPad Prism5 software was used to plot data and calculate IC50 values.

[2] = system: Mantle cell lymphoma cell line Jeko-1; test: as above; conditions: Homo sapiens, JeKo-1, 96 h, 4-day assay
Description: as §1

[3] = system: Mantle cell lymphoma cell line Z138; test: as above; conditions: Homo sapiens, Z-138, 96 h, 4-day assay
Description: as §1

[4] = system: Basaloid squamous cell line PE/CA-PJ34 (clone 12); test: Single-agent cytotoxicity assay in head & neck tumor cell lines
Description: (§2) Oral squamaous carcinoma HSC-3 and HSC-4 cells were cultured in MEM+10% FBS. Oral squamaous carcinoma CAL 27 was cultured in DMEM+10% FBS. Basaloid squamous cell line PE/CA-PJ34 (clone 12) was cultured in IMDM+10% FBS. All cell lines were maintained in their corresponding growth media containing 100 U/mL Penicillin and 100 μg/mL Streptomycin in 37° C. incubator with 5% CO2 till ready for assay. According to individual cell line growth rate, cells were seeded at different densities as indicated in each graph in 96-well plates in the time of assay. Cells were incubated for overnight at 37° C. before treated with their corresponding growth media containing free base in 0.1% DMSO at various concentrations ranging from 5000 nM to 0.064 nM. 0.1% DMSO was used as mock treatment or control. Media and compound were replenished every 5 days. After incubation for 7, 10, 11 or 13 days (as indicated in each graph), cell survival was measured by CellTiter Glo (Promega) and cell survival fraction was calculated relative to control. GraphPad Prism5 software was used to plot data and calculate IC50 values.

[5] = system: Oral squamaous carcinoma CAL 27; test: as above; conditions: Homo sapiens
Description: as §2

[6] = system: Oral squamaous carcinoma HSC-3 cells; test: as above; conditions: Homo sapiens
Description: as §2

[7] = system: Oral squamaous carcinoma HSC-4 cells; test: as above; conditions: Homo sapiens
Description: as §2

Which IC50 ([1]; Granta-519, 1000/well) does the source give for `Cn1ncnc1[C@H]1c2n[nH]c(=O)c3cc(F)cc(c23)N[C@@H]1c1ccc(F)cc1` [free base, (8S,9R)-5-fluoro-8-(4-fluorophenyl)-9-(1-methyl-1H-1,2,4-triazol-5-yl)-8,9-dihydro-2H-pyrido[4,3,2-de]phthalazin-3(7H)-one] here?
Its IC50 is 1.7 nM.

And the IC50 ([1]; Granta-519, 5000/well)?
Its IC50 is 8.83 nM.

What about the IC50 ([2]; Jeko-1, 1000/well) of the same compound?
Its IC50 is 64.2 nM.

And the IC50 ([2]; Jeko-1, 5000/well)?
Its IC50 is 357 nM.

And the IC50 ([3]; Z-138, 1000/well)?
The IC50 was 10.4 nM.

And the IC50 ([3]; Z-138, 5000/well)?
Its IC50 is 59.4 nM.

What about the IC50 ([4]; 240 h, PE/CA-PJ34 C12, 10 days, 2000/well) of the same compound?
Its IC50 is 13.6 nM.

And the IC50 ([4]; 312 h, PE/CA-PJ34 C12, 13 days, 1000/well)?
The IC50 was 18.1 nM.

And the IC50 ([5]; CAL-27, 168 h, CAL27, 7 days, 800/well)?
The IC50 was 23 nM.

What about the IC50 ([5]; CAL-27, 264 h, CAL27, 11 days, 400/well) of the same compound?
The IC50 was 15.3 nM.

And the IC50 ([6]; 168 h, HSC-3, 7 days, 1500/well)?
The IC50 was 972 nM.

And the IC50 ([6]; 264 h, HSC-3, 11 days, 750/well)?
Its IC50 is 931 nM.

And the IC50 ([7]; 168 h, HSC-4, 7 days, 100/well)?
Its IC50 is 58 nM.

What about the IC50 ([7]; 264 h, HSC-4, 11 days, 200/well) of the same compound?
Its IC50 is 48.8 nM.
